Measurements taken from patent publication US6242494A, “Substituted β-amino acid inhibitors of methionine aminopeptidase-2” (Abbott Laboratories, priority 1999, dated 2001).
Where a name gives a salt, the structure may show the parent alone.

These compounds were tested against T1, methionine aminopeptidase-2 (MetAP2) (Homo sapiens, UniProt P50579) (assay: Inhibition of MetAP2 enzyme activity (96-well, Met-Ala-Ser substrate, L-amino acid oxidase/peroxidase/ortho-dianisidine, 450 nm)). Details: IC50, recombinant MetAP2 4 μg/mL, pH 7.4, Met-Ala-Ser substrate, 20 minutes.
T1 construct: made in house; host or cells: insect cells, baculovirus system (secreted, purified from culture supernatant)
T1 sequence (P50579 whole entry): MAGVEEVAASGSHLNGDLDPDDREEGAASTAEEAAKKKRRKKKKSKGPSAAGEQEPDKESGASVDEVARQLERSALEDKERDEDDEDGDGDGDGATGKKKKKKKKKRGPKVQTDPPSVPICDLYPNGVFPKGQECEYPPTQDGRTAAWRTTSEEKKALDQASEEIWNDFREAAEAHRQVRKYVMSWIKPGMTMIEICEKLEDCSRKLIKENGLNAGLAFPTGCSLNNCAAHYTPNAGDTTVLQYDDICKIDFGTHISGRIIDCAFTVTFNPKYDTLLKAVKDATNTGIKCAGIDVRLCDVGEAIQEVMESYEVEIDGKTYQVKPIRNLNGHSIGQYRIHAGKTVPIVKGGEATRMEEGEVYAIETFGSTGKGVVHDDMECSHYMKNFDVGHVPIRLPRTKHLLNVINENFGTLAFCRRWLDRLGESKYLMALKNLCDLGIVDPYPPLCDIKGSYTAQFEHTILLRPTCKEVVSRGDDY
Format: biochemical
Protocol: The ability of compounds of the present invention to inhibit methionine aminopeptidase 2 was evaluated using the following assay.
Assays for MetAP2 enzyme activity and MetAP2 inhibition were performed in 96-well microtiter plates. Compounds to be tested for MetAP2 inhibition were dissolved in dimethyl-sulfoxide at 10 mM and diluted ten-fold in assay buffer ([…], pH 7.4, 100 mM NaCl). Ten microliters of solution of each compound to be tested for inhibition were introduced into each cell of the plate, with each compound being tested in triplicate.
The absorbence at 450 nanometers was measured every 20 seconds over a period of twenty minutes using an automaic plate reader (Molecular Devices, CA, USA). The Vmax in mOD/min, calculated for each well was used to represent MetAP2 activity. The IC50 for each inhibitor was obtained by plotting the remaining MetAP2 activity versus inhibitor concentration.
In the case of `N[C@H](CC1CCCCC1)C(O)C(=O)NCCc1ccccc1` (mixture of isomers) [Example 192, (2RS,3R)-3-amino-4-cyclohexyl-2-hydroxy-N-phenethylbutanamide hydrochloride], the IC50 is reported as 1.2 µM. In the case of `N[C@H](CC1CCCCC1)C(O)C(=O)NCc1ccc(Cl)cc1` (mixture of isomers) [Example 193, (2RS,3R)-3-amino-N-(4-chlorobenzyl)-4-cyclohexyl-2-hydroxybutanamide hydrochloride], the IC50 is reported as 2.5 µM. Compound `Cc1ccc(CCNC(=O)C(O)[C@H](N)CC2CCCCC2)cc1` (mixture of isomers) [Example 194, (2RS,3R)-3-amino-4-cyclohexyl-2-hydroxy-N-(4-methylphenethyl)butanamide hydrochloride] has an IC50 of 1.4 µM. In the case of `COc1ccc(CCNC(=O)C(O)[C@H](N)CC2CCCCC2)cc1` (mixture of isomers) [Example 195, (2RS,3R)-3-amino-4-cyclohexyl-2-hydroxy-N-(4-methoxyphenethyl)butanamide hydrochloride], the IC50 is reported as 1.3 µM. In the case of `COc1cccc(CCNC(=O)C(O)[C@H](N)CC2CCCCC2)c1` (mixture of isomers) [Example 196, (2RS,3R)-3-amino-4-cyclohexyl-2-hydroxy-N-(3-methoxyphenethyl)butanamide hydrochloride], the IC50 is reported as 0.82 µM. In the case of `COc1ccccc1CCNC(=O)C(O)[C@H](N)CC1CCCCC1` (mixture of isomers) [Example 197, (2RS,3R)-3-amino-4-cyclohexyl-2-hydroxy-N-(2-methoxyphenethyl)butanamide hydrochloride], the IC50 is reported as 0.58 µM. `N[C@H](CC1CCCCC1)C(O)C(=O)NCCc1ccc(Cl)cc1` (mixture of isomers) [Example 198, (2RS,3R)-3-amino-N-(4-chlorophenethyl)-4-cyclohexyl-2-hydroxybutanamide hydrochloride] gave an IC50 of 0.84 µM. `N[C@H](CC1CCCCC1)C(O)C(=O)NCCc1cccc(Cl)c1` (mixture of isomers) [Example 199, (2RS,3R)-3-amino-N-(3-chlorophenethyl)-4-cyclohexyl-2-hydroxybutanamide hydrochloride] gave an IC50 of 1 µM. For `N[C@H](CC1CCCCC1)C(O)C(=O)NCCc1cccc(C(F)(F)F)c1` (mixture of isomers) [Example 200, (2RS,3R)-3-amino-4-cyclohexyl-2-hydroxy-N-(3-(trifluoromethyl)phenethyl)butanamide Hydrochloride], the IC50 was 1.5 µM. `N[C@H](CC1CCCCC1)C(O)C(=O)NCCc1ccc(Br)cc1` (mixture of isomers) [Example 201, (2RS,3R)-3-amino-N-(4-bromophenethyl)-4-cyclohexyl-2-hydroxybutanamide Hydrochloride] showed an IC50 of 0.71 µM. For `N[C@H](CC1CCCCC1)C(O)C(=O)NC12CC3CC(CC(C3)C1)C2` (mixture of isomers) [Example 202, (2RS,3R)-N-(1-adamantyl)-3-amino-4-cyclohexyl-2-hydroxybutanamide Hydrochloride], the IC50 was 8.3 µM. `N[C@H](CC1CCCCC1)C(O)C(=O)NC1C2CC3CC(C2)CC1C3` (mixture of isomers) [Example 203, (2RS,3R)-N-(2-adamantyl)-3-amino-4-cyclohexyl-2-hydroxybutanamide Hydrochloride] was tested, and the IC50 was 4.9 µM. `N[C@H](CC1CCCCC1)C(O)C(=O)NC1CCCCCC1` (mixture of isomers) [Example 204, (2RS,3R)-3-amino-N-cycloheptyl-4-cyclohexyl-2-hydroxybutanamide Hydrochloride] showed an IC50 of 3.8 µM. `N[C@H](CC1CCCCC1)C(O)C(=O)NCC1CCCCC1` (mixture of isomers) [Example 205, (2RS,3R)-3-amino-4-cyclohexyl-N-(cyclohexylmethyl)-2-hydroxybutanamide Hydrochloride] was tested, and the IC50 was 2.5 µM. Compound `N[C@H](CC1CCCCC1)C(O)C(=O)NC1CCCCC1` (mixture of isomers) [Example 206, (2RS,3R)-3-amino-N,4-dicyclohexyl-2-hydroxybutanamide Hydrochloride] has an IC50 of 10 µM.
